# Test results as given in patent US20120004172A1, “SCREENING METHOD OF ANTI-LUNG OR ESOPHAGEAL CANCER COMPOUNDS” (Oncotherapy Science, Inc., priority 2008, published 2012).
# Experiments:
# [1] = system: ERK; details: EGF stimulation
# Procedure: (§1) [FIG. 5] […] B, Non-tagged CDCA5 expressing vector was transfected to HeLa cells. After starving the cells in FBS free for 20 hours, EGF stimulations were performed at 5, 10, 20, 30 minutes. 10 uM U0126 treatment was performed for 1 hour.
# [FIG. 6A] […] A, ERK1 or ERK2 expressing vector was co-transfected with non-tagged CDCA5 expressing vector to HeLa cells. After starvation of HeLa cells in FBS free for 20 hours, the cells were stimulated with 50 ng/ml EGF for 5, 10, 20, 30 minutes, respectively. 10 uM U0126 treatment was performed for 1 hour before EGF stimulation.
# (§2) Cultured cervical squamous cell carcinoma HeLa cells were cultured in FCS free medium for 20 hours. Then, the cells were stimulated by […] EGF for 20 min with or without 10 micro-M MEK inhibitor U0126 (Promega).
# [2] = system: CDCA5
# Procedure: as §1, §2
# [3] = cited from earlier work
# [4] = system: A549 lung cancer cell line; test: Growth assay (MTT) after transfection of CDCA5 mutant vectors, A549; format: cell-based, human; details: MTT at 6th day after transfection; compared with mock and wild type vectors
# Procedure: (§3) [FIG. 7A] The function of ERK-dependent phosphorylation sites in cancer cells. […] Growth assay was performed using A549 and LC319 lung cancer cell lines transfected with mock, wild type and CDCA5 alanine substitute vectors. MTT assay was performed at 6th day after transfection.
# (§4) [FIG. 7B] The function of ERK-dependent phosphorylation sites in cancer cells. B, Growth assay was performed using LC319 and A549 lung cancer cell line which was transfected with mock, wild type and CDCA5 phospho-mimicking mutant vectors. MTT assay was performed at 6th day after transfection.
# (§5) Cell growth may be measured by methods known in the art, e.g., using the MTT cell proliferation assay; briefly, cell-counting kit-8 solution (DOJINDO) is added to each dish at a concentration of 1/10 volume, and the plates are incubated at 37 degree Centigrade (C) for additional 2 hours. Absorbance is then measured at 450 nm as a reference, with a Microplate Reader 550 (BIO-RAD, Hercules, Calif.).
# [5] = system: LC319 lung cancer cell line; test: Growth assay (MTT) after transfection of CDCA5 mutant vectors, LC319; format: cell-based, human; details: MTT at 6th day after transfection; compared with mock and wild type vectors
# Procedure: as §3, §4, §5
compound,measurement,setting,value
N#CC(=C(/N)Sc1ccccc1N)/C(C#N)=C(\N)Sc1ccccc1N [U0126],activation of exogenous ERK1 or 2 as well as endogenous ERK,"[1]; HeLa cells transfected with ERK1 or ERK2 and CDCA5 vectors, 10 uM U0126 for 1 hour before EGF",but not in U0126 MEK inhibitor treatment
same,levels of ERK phosphorylation,"[1]; serum-starved HeLa cells, 10 micro-M U0126",reduced the levels of ERK phosphorylation
same,upper shift of endogenous CDCA5 band,"[2]; serum-starved HeLa cells, EGF stimulation, 10 micro-M U0126",completely inhibited the upper shift of CDCA5 band
same,signal of spot no. 2 of myc-tagged CDCA5 increased by EGF stimulation,"[2]; transfected HeLa cells, 2D-Western-blotting with anti-myc antibody, U0126 treatment",also reduced
same,EGF-induced shifted spots (no. 3 and 4) with more acidic pI of myc-tagged CDCA5,"[2]; transfected HeLa cells, 2D-Western-blotting with anti-myc antibody, pre-incubation with U0126",significantly reduced
C#Cc1cccc(Nc2ncnc3cc(OCCOC)c(OCCOC)cc23)c1 [erlotinib],median survival,"[3]; NSCLC, placebo 4.7 months (NPL 10)",6.7 months
COc1cc2ncnc(Nc3ccc(F)c(Cl)c3)c2cc1OCCCN1CCOCC1 [gefitinib],response rate and symptom control,[3]; NSCLC (NPL 11),superior response rate and symptom control
"Ser209 alanine substitute: CDCA5 mutant, alanine at position 209 (SEQ ID NO: 7), expressed from transfected vector; dominant negative",growth of A549 cells (MTT assay),[4],inhibited the growth
same,growth of LC319 cells (MTT assay),[5],inhibited the growth
